By IC10 is commonly meant the point of the concentration-response curve where the effect stands at 10%. One may read the IC50 as the concentration at which inhibition is half-maximal. By clearance is commonly meant the volume of plasma or blood freed of the substance per unit of time.

Data set [1] relates to Rat Cardiac Contractility. Nature of the data set: Echocardiography assessment of acute pharmacodynamic effect in rat cardiac contractility (fractional shortening). Type of data set: in vivo, Sprague Dawley rats. To be noted: oral gavage, plasma concentration vs fractional shortening, 1 and 4 h post-dose. As to the method:
Assessment of in vivo cardiac function by echocardiography was performed in male Sprague Dawley rats under isoflurane (1-3%) anesthesia. 2-D M-mode images of the left ventricle were acquired in the parasternal long-axis view before, during, and after administration of compounds. In vivo fractional shortening was determined by M-mode image analysis with the following calculation: ((End diastolic diameter−end systolic diameter)[…] end diastolic diameter×100). Three pre-dose baseline M-Mode images were taken at 1-minute intervals prior to compound administration. Compounds were formulated in a 0.5% hydroxypropyl methylcellulose 2910 (HPMC 2910): 0.1% Tween 80 suspension and delivered as a single dose (5 mL/kg) by oral gavage. At one and four hours post-dose, rats were lightly anesthetized for M-mode echocardiography measurement. Concurrent with echocardiography measurements, blood samples were taken to determine the corresponding compound plasma concentrations. The resulting plasma concentrations were used to estimate the IC50 and IC10 values, which is the concentration at which fractional shortening is 50% and 10% of the pre-dose baseline contractility, respectively.

Data set [2] is described as follows: Monkey single dose pharmacokinetics. Type of data set: in vivo. To be noted: male, plasma, cynomolgus monkey, IV; for Vd: read-out: Vss; for half-life: read-out: t½ (converted). As to the method: Non-naïve Male Cynomolgus Monkey (2-5 years of age, body weight 2-5 kg) used in this study were obtained from Topgene Biotechnology. All animals for IV administration had free access to food and water; all animals for PO were fasted overnight prior to dosing and were fed approximately 6 hours after dosing. The IV dose solution was prepared in 10% DMA/[…] solution (40% w/v aqueous HPβCD) at a concentration of 1.0 mg/mL. The oral dose suspension was prepared by suspending the compound in 0.5% HPMC/0.1% Tween 80 in distilled water at a concentration of 0.2 mg/mL. Concentrations of IV and PO doses were measured at the end of the study. PK parameters were calculated using the nominal dose values if the measured values were within 20% of the nominal values. Blood samples were collected by venipuncture of peripheral veins except the dosing vein at pre-dose, 5 15, 30 min, 1, 2, 4, 6, 8, 24 and 48 h post-dose. Blood samples were centrifuged and resultant plasma was frozen for bioanalysis. Plasma samples were stored at −80° C. before analysis. Plasma samples were analyzed for compound concentrations using the LC/MS/MS method. Briefly, a 50 μL aliquot of each plasma sample was mixed with 100 μL of acetonitrile that contained an internal standard. The mixture was vortexed and centrifuged. Ten (10) μL of the resulting solution was injected onto a reverse-phase C18 column and the resultant peaks detected on a LC/MS/MS equipped with a turbo ionspray ionization source. Sample concentrations below the limit of quantification (BLQ) were treated as zero for PK calculations. PK parameters were estimated from individual animals using noncompartmental analysis of the concentration-time data (Phoenix WinNonLin software, version 64; Pharsight, Mountain View, CA). The elimination rate constant (k) was calculated as the absolute value of the slope of the linear regression of logarithm (log) of the concentration versus time for the last three data points of the concentration-time profiles. Apparent elimination half-life (t1/2) values were calculated as ln(2)/k. Area under the concentration-time curve (AUC) values were estimated using linear trapezoidal method. AUCt values were calculated from the dosing time to the last measurable concentration. AUC∞ values were calculated as the sum of the corresponding AUCt and the ratio of the last detectable concentration divided by k. Plasma clearance (CL) was calculated from Dose/AUC∞. Mean resident time extrapolated to infinity (MRT∞) was estimated by moment analysis. Vss was calculated from MRT∞×CL. Maximum concentration (Cmax) and time to reach Cmax (tmax) were recorded as observed. As this was a cross-over study, bioavailability was calculated dAUC∞,po/dAUC∞,iv×100% where dAUC was the dose normalized AUC value from the same animal given IV and PO dose. Data for compounds tested are provided in Table E. Compounds tested were prepared in accordance with the synthetic procedures described herein.

In data set [1], `C[C@H]1CC[C@H](N2CC(=O)N(Cc3ccc(F)c(F)c3)C3(CN(C=O)C3)C2=O)CC1` [Compound 4, 5-(3,4-difluorobenzyl)-8-((1r,4r)-4-methylcyclohexyl)-6,9-dioxo-2,5,8-triazaspiro[3.5]nonane-2-carbaldehyde] registered an IC10 of 284 nM and an IC50 of 2760 nM.
In data set [1], `C[C@H]1CC[C@H](N2CC(=O)N(Cc3ccc(F)c(F)c3)C3(CN(C(N)=O)C3)C2=O)CC1` [Compound 5, 5-(3,4-difluorobenzyl)-8-((1r,4r)-4-methylcyclohexyl)-6,9-dioxo-2,5,8-triazaspiro[3.5]nonane-2-carboxamide] displayed an IC10 of 1170 nM and a 50% inhibitory concentration (IC50) of 4440 nM.
Regarding `CC(C)N1CC(=O)N(Cc2ccc(Cl)c(F)c2)C2(CN(c3cccnn3)C2)C1=O` [Compound 8, 5-(4-chloro-3-fluorobenzyl)-8-isopropyl-2-(pyridazin-3-yl)-2,5,8-triazaspiro[3.5]nonane-6,9-dione], in data set [1], the IC10 worked out at 508 nM and the 50% inhibitory concentration (IC50) came to 2250 nM.
For `CC(C)N1CC(=O)N(Cc2ccc(C(F)(F)F)cc2)C2(CN(c3cccnn3)C2)C1=O` [Compound 13, 8-isopropyl-2-(pyridazin-3-yl)-5-(4-(trifluoromethyl)benzyl)-2,5,8-triazaspiro[3.5]nonane-6,9-dione], in data set [2], the clearance was found to be 25.8 mL/min/kg, the Vd was 3.98 L/kg and the half-life was 2.05 h. In data set [1], this compound showed a 10% effect concentration (IC10) of 317 nM and a 50% inhibitory concentration (IC50) of 1170 nM.
For `C[C@H]1CC[C@H](N2CC(=O)N(Cc3ccc(Cl)cc3)C3(CN(C(N)=O)C3)C2=O)CC1` [Compound 18, 5-(4-chlorobenzyl)-8-((1r,4r)-4-methylcyclohexyl)-6,9-dioxo-2,5,8-triazaspiro[3.5]nonane-2-carboxamide] the same measures were 7.91 mL/min/kg, 6.08 L/kg, 10.9 h, 892 nM and 2840 nM.

For the origin of these results see patent US12286437B2, “Cardiac sarcomere inhibitors” (Cytokinetics, Inc., priority 2021, dated 2025).
